Experimental data taken from patent US6355785B1, “Guanosine-rich oligonucleotide integrase inhibitors” (Aronex Pharmaceuticals, Inc., priority 1993, dated 2002).
Where two headings read alike, the source gives them in different places.

How the values were obtained:
HIV-2 integrase = target: T1, HIV-2 integrase (Human immunodeficiency virus type 2 subtype A, UniProt P04584); assay: HIV-2 integrase 3′-processing assay; type: biochemical; settings: HIV-1 DNA
T1 construct: A plasmid encoding the HIV-2 integrase was generously provided by Dr. R. H. A. Plasterk; made in house

[1] = target: T2, HIV-1 integrase deletion mutant IN50-288 (Human immunodeficiency virus type 1 group M subtype B, UniProt P12497); assay: Disintegration assay, IN50-288; type: biochemical; settings: IN50-288, 3 μM
T2 construct: purchased gift of Drs; T. Jenkins and R. Craigie, NIDDK, NIH (not bought)

[2] = set-up: species or system cynomolgus monkeys; settings: cynomolgus monkey, in vivo
Description: Dosing. Twelve experimentally naive cynomolgus monkeys were assigned to four groups of three animals each. Prior to dosing, each animal was lightly sedated with a combination of ketamine (1 0 mg/kg) and diazepam (0.5 mg/kg), and a catheter was introduced into the femoral artery for recording central arterial pressure. Monkeys were given a single intravenous infusion of 5, 20, or 50 mg AR177/kg or saline over ten minutes through a cephalic vein catheter using a Harvard infusion pump. […] The concentration of AR177 in dosing solutions was confirmed post experiment by absorbance at 280 nm on a spectrophotometer. […] Electrocardiograms (ECGs), central pressure, and heart rate were recorded continuously for 120 minutes following the initiation of doing. […]
Serum chemistry parameters. The following were determined: sodium, potassium, chloride, carbon dioxide, total bilirubin, direct bilirubin, indirect bilirubin, alkaline phosphatase, lactate dehydrogenase, aspartate aminotransferase, alanine aminotransferase, gamma-glutamyltransferase, calcium, phosphorus, glucose, urea nitrogen, creatinine, uric acid total protein, albumin, globulin, cholesterol and triglycerides. The samples were analyzed at Sierra Nevada Laboratories (Reno, Nev.).

HIV-1DV = assay: Acute infection of primary human macrophages (intracellular p24); type: cell-based
HIV-1 integrase IN1-288 = target: T3, HIV-1 integrase IN1-288 (Human immunodeficiency virus type 1 group M subtype B, UniProt P12497); assay: Disintegration assay, wild-type integrase; type: biochemical
T3 construct: purchased gift of Drs; T. Jenkins and R. Craigie, NIDDK, NIH (not bought; the expression system was also provided)

HIV-1SKI = assay: Single cycle analysis of HIV-1 cDNA, CEM-SS cells; type: cell-based; settings: 10- to 100-fold over IC50
U937 = type: cell-based, human
Description: (§1) Cytotoxicity Analysis. The cytotoxicity of T30177 was assayed as described above. […] The degree of cell proliferation was determined according to the manufacturer's instructions.
(§2) Cytotoxicity Assays. The cytotoxicity of T30177 was determined using several different cell lines and primary human cells as described above. The cytotoxicity profile obtained for log phase growing cells was variable depending upon the cell line used, while the slower growing PBMCs, PBLs, and macrophages all tolerated the compound at concentrations exceeding 100 μM as monitored using the trypan blue exclusion, [^3H]thymidine uptake, or [^3H]leucine uptake techniques.

CEM-SS = type: cell-based, human
Description: as §1, §2

MT2 = type: cell-based, human
Description: as §1, §2

MT4 = type: cell-based, human
Description: as §1, §2

AA5 = type: cell-based, human
Description: as §1, §2

CEMx174 = type: cell-based, human
Description: as §1, §2

[3] = system: HIV-1 strains (SKI, RF, DV, IIIB, ADP/141); settings: previously reported by Ojwang et al.; cited from earlier work
[4] = Repeat-dose monkey study: coagulation parameters (aPTT); type: in vivo, cynomolgus monkeys
Description: Hematology and coagulation parameters. Hematology and coagulation parameters were determined 9-11 days prior to the start of the study, just prior to administering doses 1 (day 1) and 12 (day 23), five minutes after dosing (coagulation only), 30 minutes and 4 hours following dosing, one day after the 12th dose (day 24), and in recovery monkeys at sacrifice (day 37). The following were determined: red blood cell count and morphology, total and differential while blood cells, hemoglobin, hematocrit, prothrombin time, fibrinogen, mean cell hemoglobin, mean corpuscular volume, mean corpuscular hemoglobin concentration, platelet count, activate partial thromboplastin time, and D-dime. Hematology was determined at Sierra Nevada Laboratories (Reno, Nev.).

[5] = cynomolgus monkey, up to 236 ug/mL
SIVMAC251 = type: cell-based, simian immunodeficiency virus; settings: SIVMAC251, MT4; read-out: IC50 virus production
HIV-1 strain DV = assay: HIV-1 induced syncytia formation assay in SUP T1 cells; type: cell-based

T1 sequence (P04584 1172-1464): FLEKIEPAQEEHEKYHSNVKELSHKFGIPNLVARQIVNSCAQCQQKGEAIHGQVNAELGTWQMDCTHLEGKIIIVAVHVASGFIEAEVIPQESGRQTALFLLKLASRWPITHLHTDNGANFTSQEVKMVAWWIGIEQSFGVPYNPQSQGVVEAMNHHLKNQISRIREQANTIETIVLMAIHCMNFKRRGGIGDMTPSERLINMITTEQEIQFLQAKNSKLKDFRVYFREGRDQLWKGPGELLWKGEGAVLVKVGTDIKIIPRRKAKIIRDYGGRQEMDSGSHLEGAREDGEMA

Compound: 5′-gtggtgggtgggtgggt-3′ (GTGGTGGGTGGGTGGGT; phosphorothioate termini, further chemistry not given here) [T30177, pPT version of parent compound I100-15, 17 mer]
- IC50 (HIV-2 integrase): 0.09 µM
- inhibition of disintegration [1]: ≤ 30%
- serum chemistry parameters [2]: no changes
- HIV-1 replication in macrophages (HIV-1DV): significantly inhibited HIV-1 replication in macrophages
- IC50 (HIV-1 integrase IN1-288): 0.27 µM
- viral cDNA 12 hours post-infection, drug added at time of infection (HIV-1SKI): viral cDNA was detected
- CC50 (U937): > 100 µM
- TC25 (U937): >100 µM
- TC95 (U937): >100 µM
- CC50 (CEM-SS): 92 ± 3 µM
- TC25 (CEM-SS): 50.8 ± 3.2 µM
- TC95 (CEM-SS): >100 µM
- CC50 (MT2): 61.2 ± 5.5 µM
- TC25 (MT2): 27 ± 3.5 µM
- TC95 (MT2): >100 µM
- CC50 (MT4): 70 ± 7.1 µM
- TC25 (MT4): 34 ± 4.0 µM
- TC95 (MT4): >100 µM
- CC50 (AA5): 94.2 ± 3.1 µM
- TC25 (AA5): 45.66 ± 2.0 µM
- TC95 (AA5): >100 µM
- CC50 (CEMx174): 50 ± 5.2 µM
- TC25 (CEMx174): 10 ± 2.5 µM
- TC95 (CEMx174): >100 µM

Compound: 5′-gtggtgggtgggtgggt-3′ [T30177] (GTGGTGGGTGGGTGGGT; phosphorothioate termini, further chemistry not given here)
- IC50 virus-induced cytopathogenicity (Sindbis virus; Sindbis virus): >200 µg/mL
- MCC minimum concentration altering normal cell morphology (Sindbis virus; Sindbis virus assay): ≧200 μg/mL
- IC50 [3]: 0.075 µM
- anticoagulation activity (aPTT) ([4]; 2.5 mg/kg): no anticoagulation activity
- mean aPTT relative to pre-dose ([4]; 10 mg/kg, 5 minutes post-dosing, doses 1 and 12): approximately twice the pre-dose value
- mean aPTT ([4]; 40 mg/kg, five minutes after dosing): exceeded the upper limit of the assay
- no effect plasma AR177 concentration versus aPTT ([4]; cynomolgus monkey, in vivo): 60-100 μg AR177/mL
- plasma AR177 concentration at doubling of aPTT ([4]; cynomolgus monkey, in vivo): 100-200 μg AR177/mL
- plasma AR177 concentration at tripling of aPTT ([4]; cynomolgus monkey, in vivo): 220-300 μg AR177/mL
- complement CH50 [5]: no effect
- IC50 virus-induced cytopathogenicity (HSV-1; HSV-1 (KOS)): >200 µg/mL
- MCC minimum concentration altering normal cell morphology (HSV-1; HSV-1 (KOS) assay): 400 μg/mL
- IC50 virus-induced cytopathogenicity (HSV-1; HSV-1 TK (B2006)): >200 µg/mL
- MCC minimum concentration altering normal cell morphology (HSV-1; HSV-1 TK (B2006) assay): 400 μg/mL
- IC50 virus-induced cytopathogenicity (HSV-1; HSV-1 TK (VMW1837)): >200 µg/mL
- MCC minimum concentration altering normal cell morphology (HSV-1; HSV-1 TK (VMW1837) assay): 400 μg/mL
- IC50 (SIVMAC251): 1.5 ± 1.2 µM
- IC50 virus-induced cytopathogenicity (Tacaribe): >50 µg/mL
- MCC minimum concentration altering normal cell morphology (Tacaribe): >50 μg/mL

Compound: Cc1cn([C@H]2C[C@H](N=[N+]=[N-])[C@@H](CO)O2)c(=O)[nH]c1=O [AZT, 3′-azido-3′-deoxythymidine]
- reappearance of syncytium after removal of drug (HIV-1 strain DV; 4 μM, removed day 4): two days after removal
- IC50 (HIV-1 strain DV; Human immunodeficiency virus 1, 96 h, SUP T1, HIV-1DV, four days, read-out: IC50 Syn (syncytium inhibition)): 0.04 µM
- IC50 (HIV-1 strain DV; Human immunodeficiency virus 1, SUP-T1, size variants of I100-15, read-out: IC50 Syn.): 0.02 µM
